Experiments:
Design in all cases: species or system Female Nude mice
[1] = system: NCI-N87 xenograft (gastric cancer cell line); test: Antitumor test in vivo, NCI-N87 xenograft model (Example 4); conditions: DS-1062 10 mg/kg IV single dose, AZD6738 25 mg/kg PO QD 14 days
Method: (§1) Female Nude mice (Charles River) aged 5-8 weeks were used, following 7 days acclimatisation before entry into the study. 5×10^6 NCI-N87 tumor cells (gastric cancer cell line) (1:1 in Matrigel) were implanted subcutaneously onto the flank of the female Nude mice. When tumors reached approximately 250 mm^3, similar-sized tumors were randomly assigned to treatment groups as shown in Table 4:
(§2) The dose of compound for each animal was calculated based on the individual body weight on the day of dosing. DS-1062 and AZD6738 were dosed on the same day, with DS-1062 being administered approximately 5 hour post the PO dose of AZD6738. DS-1062 was administered as a single dose at 10 mg/kg on day 1, and AZD6738 was administered at 25 mg/kg QD for 14 days. Duration of dosing was for 14 days.
The dosing solutions for DS-1062 were prepared on the day of dosing by diluting the DS-1062 stock (20.1 mg/ml) in 25 mM histidine buffer, 9% sucrose (pH5.5) to 0.6 mg/ml, and 2 mg/ml for the 3 mg/kg and 10 mg/kg dosing solutions, respectively. Each dosing solution was mixed well using a pipette before administration via IV injection at a dosing volume of 5 ml/kg. […]
(§3) Tumor growth inhibition (TGI) was calculated as follows:
(§4) Statistical significance was evaluated using one-tailed t-test of (log(relative tumor volume)=log(final vol/start vol)) at the day of final measure, comparing to vehicle control. […]

[2] = system: CTG-3303 xenograft (TNBC PDX, relapsed on talazoparib); test: Antitumor test in vivo, TNBC patient derived xenograft model CTG-3303 (Example 5); conditions: CTG-3303 TNBC PDX; for TGI % day 46: DS-1062 10 mg/kg IV single dose, AZD6738 25 mg/kg PO QD 14 days; for percentage of mice achieving a complete response (tumor volume=0 mm^3): day 93 post treatment, 8 mice per group, DS-1062 10 mg/kg, AZD6738 25 mg/kg QD
Source text: (§5) Female Nude mice (Charles River) aged 5-8 weeks were used, following 7 days acclimatisation before entry into the study. The human patient-derived xenograft (PDX) model, CTG-3303, was established from fragments of freshly resected tumor of a triple negative breast cancer (TNBC) patient whom relapsed on treatment with PARP inhibitor talazoparib. This PDX was obtained in accordance with appropriate consent procedures. This TNBC PDX model was subcutaneously passaged in vivo as fragments from animal to animal in nude mice. When tumors reached approximately 250 mm^3, similar-sized tumors were randomly assigned to treatment groups as shown in Table 6:
as §2
(§6) The dosing solutions for DS-1062 were prepared on the day of dosing by diluting the DS-1062 stock (20.1 mg/ml) in 25 mM histidine buffer, 9% sucrose (pH5.5) to 0.6 mg/ml, and 2 mg/ml for the 3 mg/kg and 10 mg/kg dosing solutions, respectively. Each dosing solution was mixed well using a pipette before administration via IV injection at a dosing volume of 5 ml/kg.
DMSO (10% of the total vehicle volume) was added to the compound and mixed well with a pellet pestle. Sonication for approximately 5 minutes was required to fully dissolve the compound. Following which, propylene glycol (40% of the total vehicle volume) was added and mixed well using a magnetic stirrer. A volume of 10 ml of sterile water was added to the glass wheaton vial to rinse any remaining compound from the vial then transferred to the glass bottle. The remaining volume of sterile water in total (50% of the final vehicle volume) was added to the glass bottle and mixed well using a magnetic stirrer. The dosing solution was protected from light and kept at room temperature for up to 7 days being continually mixed. The final dosing matrix for 25 mg/kg AZD6738 was a clear solution with a faint yellow hue.
Values shown are geometric mean±SEM; n=8 for all treatment groups. The mice which had reached the humane endpoint (e.g. large tumor burden) during the study were removed from the group and the remaining mice were used for the calculation of the TGI.

[3] = system: NCI-N87 xenograft (gastric cancer cell line); test: Antitumor test in vivo, dose optimization, NCI-N87 xenograft model (Example 7); conditions: DS-1062 10 mg/kg IV single dose, AZD6738 25 mg/kg PO BID Day 1-14
Method: as §1, with “(Envigo)” for “(Charles River)”, “9:” for “4:”
The dose of compound for each animal was calculated based on the individual body weight on the day of dosing. DS-1062 was administered as a single dose at 10 mg/kg on day 1, and AZD6738 was administered at 25 mg/kg BID as listed in Table 9.
as §6, with “solution” for “solutions”, “was” for “were”, “to” for “to 0.6 mg/ml, and”, “for” for “for the 3 mg/kg and”, “solution.” for “solutions, respectively.”
(§7) DMSO (10% of the total vehicle volume) was added to the compound and mixed well with a pellet pestle. Sonication for approximately 5 minutes was required to fully dissolve the compound. […]
as §3, §4

[4] = system: CTG-3718 xenograft (ovarian PDX, relapsed on talazoparib); test: Antitumor test in vivo, CTG3718 ovarian patient derived xenograft model (Example 8); conditions: CTG-3718 ovarian PDX; DS-1062 10 mg/kg IV single dose; AZD6738 25 mg/kg PO BID Day 1-14
Source text: as §5, with “(Envigo)” for “(Charles River)”, “CTG-3718,” for “CTG-3303,”, “ovarian” for “triple negative breast”, “cancer” for “cancer (TNBC)”, “ovarian” for “TNBC”, “11:” for “6:”
as §2, with “BID” for “QD”, “days.” for “days. Duration of dosing was for 14 days.”
as §6, with “solution” for “solutions”, “was” for “were”, “to” for “to 0.6 mg/ml, and”, “for” for “for the 3 mg/kg and”, “solution. The” for “solutions, respectively. Each”
DMSO (10% of the total vehicle volume) was added to the compound and mixed well with a pellet pestle. […]

[5] = system: N87-DS-1062 resistant tumor cell xenograft (gastric cancer cell line); test: Antitumor test in vivo, N87 DS-1062 resistant model (Example 9); conditions: N87-DS-1062 resistant xenograft; DS-1062 10 mg/kg IV single dose; AZD6738 25 mg/kg PO BID Day 1-7
Method: as §1, with “N87-DS-1062 resistant” for “NCI-N87”, “13:” for “4:”
as §2, with “BID” for “QD”, “7” for “14”, “days.” for “days. Duration of dosing was for 14 days.”
as §6, with “solution” for “solutions”, “was” for “were”, “to” for “to 0.6 mg/ml, and”, “for” for “for the 3 mg/kg and”, “solution. The” for “solutions, respectively. Each”
as §7, with “compound. Following which, propylene glycol (40% of the total vehicle volume) was added and mixed well using a magnetic stirrer.” for “compound.”

C[C@@H]1COCCN1c1cc(C2([S@](C)(=N)=O)CC2)nc(-c2ccnc3[nH]ccc23)n1 [AZD6738, 4-{4-[(3R)-3-Methylmorpholin-4-yl]-6-[1-((R)-S-methylsulfonimidoyl)cyclopropyl]pyrimidin-2-yl}-1H-pyrrolo[2,3-b]pyridine]
TGI % day 33 [1]: 30.1%
TGI % day 46 [2]: 2.3%
percentage of mice achieving a complete response (tumor volume=0 mm^3) [2]: 0%
TGI % day 42 [3]: 23.7%
TGI % day 22 [4]: −25.7%
TGI % day 21 [5]: −9.8%

B1: DS-1062: anti-TROP2 antibody-drug conjugate; exatecan-derivative drug-linker conjugated to the anti-TROP2 antibody via a thioether bond; DAR ~4 (conjugate, chains of the INN, looked up)
VH: QVQLVQSGAEVKKPGASVKVSCKASGYTFTTAGMQWVRQAPGQGLEWMGWINTHSGVPKYAEDFKGRVTISADTSTSTAYLQLSSLKSEDTAVYYCARSGFGSSYWYFDVWGQGTLVTVSS
VL: DIQMTQSPSSLSASVGDRVTITCKASQDVSTAVAWYQQKPGKAPKLLIYSASYRYTGVPSRFSGSGSGTDFTLTISSLQPEDFAVYYCQQHYITPLTFGQGTKLEIK
modifications: exatecan-derivative drug-linker, DAR ~4
TGI % day 33 [1]: 84.1%
TGI % day 46 [2]: 88.2%
percentage of mice achieving a complete response (tumor volume=0 mm^3) [2]: 0%
TGI % day 42 [3]: 74.8%
TGI % day 22 [4]: 69.8%
TGI % day 21 [5]: 0.77%

— US20250064967A1, “COMBINATION OF ANTIBODY-DRUG CONJUGATE AND ATR INHIBITOR” (AstraZeneca UK Limited, priority 2021, published 2025)
